# Laboratory results published in patent publication US9822138B2, “Antiviral beta-amino acid ester phosphodiamide compounds” (Merck Sharp & Dohme Corp., priority 2015, dated 2017).
# Like-named read-outs stand apart in the source and are kept apart here.
# What was measured:
# HIV-1 (H9/IIIB strain) = test: microbe, parasite or virus in culture; assay type: cell-based
# Procedure: Assessing Antiviral Potency in a Multiple Round HIV-1 Infection Assay (Viking Assay)
# The antiviral activity of the tenofovir prodrugs of the Examples herein was assessed in an assay that measures the rate of replication of HIV in cell culture, termed the Viking assay (Viral KINetics in Green cells) and performed as follows. HIV-1 replication was monitored using MT4-gag-GFP clone D3 (hereafter designated MT4-GFP), which are MT-4 cells modified to harbor a GFP reporter gene, the expression of which is dependent on the HIV-1 expressed proteins tat and rev. Productive infection of an MT4-GFP cell with HIV-1 results in GFP expression approximately 24 h post-infection. MT4-GFP cells were maintained at 37° C./5% CO2/90% relative humidity in RPMI 1640 supplemented with 10% fetal bovine serum, 100 U/ml penicillin/streptomycin, and 400 μg/ml G418 to maintain the reporter gene. For infections, MT4-GFP cells were placed in the same medium lacking G418 and infected overnight with HIV-1 (H9/IIIB strain) virus at an approximate multiplicity of infection of 0.01 in the same incubation conditions. Cells were then washed and re-suspended in either RPMI 1640 supplemented with 10% or 50% normal human serum (NHS) at 1.6×10^5 cells/mL (10% NHS or 50% NHS, respectively). Compound plates were prepared by dispensing compounds dissolved in DMSO into wells of 384 well poly-D-lysine-coated plates (0.2 μl/well) using an ECHO acoustic dispenser. Each compound was tested in a 10-point serial 3-fold dilution (typical final concentrations: 8.4 μM-0.42 nM). Controls included no inhibitor (DMSO only) and a combination of three antiviral agents (efavirenz, indinavir, an in-house integrase strand transfer inhibitor at final concentrations of 4 μM each). Cells were added ([…]) to compound plates and the infected cells were maintained at 37° C./5% CO2/90% relative humidity.
# Infected cells were quantified at two time points, ˜48 h and ˜72 h post-infection, by counting the number of green cells in each well using an Acumen eX3 scanner. […] Inhibition of R0 is calculated for each well, and IC50s determined by non-linear 4-parameter curve fitting.
# [1] = Prodrug stability assay in bio-relevant media (FaSSIF with pancreatin; GI tract stability); assay type: in vitro ADME; conditions: parent prodrug area at 5 h divided by area at 0 h; 37° C.; 0.5 mg/mL pancreatin in FaSSIF
# Procedure: Prodrug Stability Assay in Bio-Relevant Media
# The following assay was employed to evaluate the stability of the prodrugs in simulated gastrointestinal tract conditions. Preparation of fasted state simulated intestinal fluid (FaSSIF) using Phares SIF Powder was carried out according to protocols from Phare Drug Delivery AG (Baselland, Switzerland). For sample preparation, 10 μL stock solutions (10 mM) of prodrug substance in DMSO was added to 990 μL of 0.5 mg/mL Pancreatin solution (Fisher CAS#8049-47-6) in FaSSIF. Two samples were prepared for each compound at initial. If the sample was clear solution at the beginning, ran one sample directly as initial by HPLC; if the sample was not clear at starting, diluted the sample by 100% ACN. Put the other sample under 37° C. and observed the sample at 5 h time-point. At 5 h time point, if the sample was clear solution then performed HPLC analysis directly; if it was not clear solution, diluted the sample by 100% ACN and assayed by HPLC. All the samples were vortexed for 3 min and observed before injection. For the diluted samples, the area will be multiplied by a factor when data analysis. The analysis was carried out with an Agilent 1100 series HPLC with autosampler. The column was usually a Poroshell 120 EC-C18, 4.6×50 mm, 2.7 μm. The flow rate was 1.8 mL/min, and the injection volume was 5 or 10 μL. UV detection was in the range 210-400 nm. The mobile phase consisted of solvent A (water plus 10 mM tetrabutylammonium bromide) and solvent B (acetonitrile) with a gradient of 90% solvent A at 0 min changing to 95% solvent B over 6 min, maintained for 1.5 min, then reverting to 90% solvent A over 1.6 min. The area of the parent in prodrug at 5 h time point was divided by the area of the parent in prodrug at 0 h time point, to generate the % claimed parent ratio, which are summarized in Table 5 for GI Tract stability.
# [2] = Human immunodeficiency virus 1, 10% normal human serum, MT4-GFP cells infected with HIV-1 H9/IIIB, inhibition of reproductive ratio R0, read-out: Viking, IC50 (10% NHS)
# [3] = Human immunodeficiency virus 1, 50% normal human serum, MT4-GFP cells infected with HIV-1 H9/IIIB, inhibition of reproductive ratio R0, read-out: Viking, IC50 (50% NHS)
# [4] = 10% normal human serum, MT4-GFP cells infected with HIV-1 H9/IIIB, inhibition of reproductive ratio R0, read-out: Viking, IC50 (10% NHS)
# [5] = 50% normal human serum, MT4-GFP cells infected with HIV-1 H9/IIIB, inhibition of reproductive ratio R0, read-out: Viking, IC50 (50% NHS)
# [6] = Human immunodeficiency virus 1, IIIB, 10% normal human serum, MT4-GFP cells infected with HIV-1 H9/IIIB, inhibition of reproductive ratio R0, read-out: Viking, IC50 (10% NHS)
# [7] = Human immunodeficiency virus 1, IIIB, 50% normal human serum, MT4-GFP cells infected with HIV-1 H9/IIIB, inhibition of reproductive ratio R0, read-out: Viking, IC50 (50% NHS)
SMILES,IC50 (HIV-1 (H9/IIIB strain); [4]) [nM],IC50 (HIV-1 (H9/IIIB strain); [5]) [nM],IC50 (HIV-1 (H9/IIIB strain); [7]) [nM],also measured
"CC(C)OC(=O)[C@H](C)NP(=O)(CO[C@H](C)Cn1cnc2c(N)ncnc21)NC[C@H](C)C(=O)OC(C)C (single isomer, unassigned) [Example 6A]",–,–,–,IC50 (HIV-1 (H9/IIIB strain); [2]): 20 nM; IC50 (HIV-1 (H9/IIIB strain); [3]): 59.3 nM; GI Tract stability [1]: 99.5%
"CC(C)OC(=O)CCNP(=O)(CO[C@H](C)Cn1cnc2c(N)ncnc21)N[C@@H](C)C(=O)OC(C)C (single isomer, unassigned) [Example 7B]",–,–,–,IC50 (HIV-1 (H9/IIIB strain); [2]): 378 nM; IC50 (HIV-1 (H9/IIIB strain); [3]): 393 nM
"CC(C)OC(=O)C[C@H](C)NP(=O)(CO[C@H](C)Cn1cnc2c(N)ncnc21)N[C@@H](C)C(=O)OC(C)C (single isomer, unassigned) [Example 8B]",439,531,–,–
"CC(C)OC(=O)C[C@@H](C)NP(=O)(CO[C@H](C)Cn1cnc2c(N)ncnc21)N[C@@H](C)C(=O)OC(C)C (single isomer, unassigned) [Example 9B]",378,800,–,–
"CC(C)OC(=O)[C@H](C)CNP(=O)(CO[C@H](C)Cn1cnc2c(N)ncnc21)N[C@@H](C)C(=O)OC(C)C (single isomer, unassigned) [Example 10B]",435,908,–,–
"CC(C)OC(=O)[C@@H](C)CNP(=O)(CO[C@H](C)Cn1cnc2c(N)ncnc21)N[C@@H](C)C(=O)OC1CCCC1 (single isomer, unassigned) [Example 11A]",–,–,104,IC50 (HIV-1 (H9/IIIB strain); [6]): 21.5 nM
"CC(C)OC(=O)[C@@H](C)CNP(=O)(CO[C@H](C)Cn1cnc2c(N)ncnc21)N[C@@H](C)C(=O)OC1CCC1 (single isomer, unassigned) [Example 12A]",–,–,119,IC50 (HIV-1 (H9/IIIB strain); [6]): 41.7 nM
"CC(C)OC(=O)[C@@H](C)CNP(=O)(CO[C@H](C)Cn1cnc2c(N)ncnc21)N[C@@H](C)C(=O)OC1CCCCC1 (single isomer, unassigned) [Example 13B]",34.2,175,–,–
"CCCCOC(=O)[C@H](C)NP(=O)(CO[C@H](C)Cn1cnc2c(N)ncnc21)NC[C@H](C)C(=O)OC(C)C (single isomer, unassigned) [Example 15A]",–,–,146,IC50 (HIV-1 (H9/IIIB strain); [6]): 19.6 nM
"CC(C)OC(=O)C[C@H](C)NP(=O)(CO[C@H](C)Cn1cnc2c(N)ncnc21)N[C@H](C)C(=O)OC1CCC1 (single isomer, unassigned) [Example 19B]",3790,> 8400,–,–
"CC(C)OC(=O)[C@@H](C)CNP(=O)(CO[C@H](C)Cn1cnc2c(N)ncnc21)N[C@H](C)C(=O)OC1CCC1 (single isomer, unassigned) [Example 20A]",859,4100,–,–
"CC(C)OC(=O)[C@@H](C)CNP(=O)(CO[C@H](C)Cn1cnc2c(N)ncnc21)N[C@H](C)C(=O)OC1CCCCC1 (single isomer, unassigned) [Example 21A]",1460,–,–,–
"CC(C)OC(=O)[C@@H](C)CNP(=O)(CO[C@H](C)Cn1cnc2c(N)ncnc21)N[C@H](C)C(=O)OC1CCCCC1 (single isomer, unassigned) [Example 21B]",270,836,–,–
"CC(C)OC(=O)[C@@H](C)CNP(=O)(CO[C@H](C)Cn1cnc2c(N)ncnc21)N[C@H](C)C(=O)OC1CCCC1 (single isomer, unassigned) [Example 22A]",400,–,480,–
"CC(C)OC(=O)CCNP(=O)(CO[C@H](C)Cn1cnc2c(N)ncnc21)N[C@H](C)C(=O)OC1CCC1 (single isomer, unassigned) [Example 23A]",> 8400,> 8400,–,–
"CCCCCOC(=O)C(C)(C)NP(=O)(CO[C@H](C)Cn1cnc2c(N)ncnc21)N[C@@H](C)CC(=O)OC(C)C (single isomer, unassigned) [Example 26A]",23.3,116,–,–
"CCCCCCOC(=O)C(C)(C)NP(=O)(CO[C@H](C)Cn1cnc2c(N)ncnc21)N[C@@H](CC(=O)OC(C)C)C(C)C (single isomer, unassigned) [Example 28A]",19.1,58.5,–,–
"CC(C)OC(=O)CCNP(=O)(CO[C@H](C)Cn1cnc2c(N)ncnc21)NCCC(=O)OC(C)C [Example 1, 1-methylethyl 8-{[(1R)-2-(6-amino-9H-purin-9-yl)-1-methylethoxy]methyl}-2-methyl-4-oxo-3-oxa-7,9-diaza-8-phosphadodecan-12-oate 8-oxide]",–,–,–,"IC50 (HIV-1 (H9/IIIB strain); Human immunodeficiency virus 1, IIIB, read-out: Viking, IC50 (10% NHS)): > 8400 nM; IC50 (HIV-1 (H9/IIIB strain); Human immunodeficiency virus 1, IIIB, read-out: Viking, IC50 (50% NHS)): > 8400 nM"
"CC(C)OC(=O)C[C@@H](C)NP(=O)(CO[C@H](C)Cn1cnc2c(N)ncnc21)N[C@H](C)CC(=O)OC(C)C [Example 2, 1-methylethyl (6R,10R)-8-{[(1R)-2-(6-amino-9H-purin-9-yl)-1-methylethoxy]methyl}-2,6,10-trimethyl-4-oxo-3-oxa-7,9-diaza-8-phosphadodecan-12-oate 8-oxide]",–,–,> 8400,IC50 (HIV-1 (H9/IIIB strain); [6]): > 8400 nM
"CC(C)OC(=O)[C@@H](C)CNP(=O)(CO[C@H](C)Cn1cnc2c(N)ncnc21)NC[C@H](C)C(=O)OC(C)C [Example 3, 1-methylethyl (5S,11S)-8-{[(1R)-2-(6-amino-9H-purin-9-yl)-1-methylethoxy]methyl}-2,5,11-trimethyl-4-oxo-3-oxa-7,9-diaza-8-phosphadodecan-12-oate 8-oxide]",–,–,> 8400,IC50 (HIV-1 (H9/IIIB strain); [6]): 7340 nM
"CC(C)OC(=O)[C@H](C)CNP(=O)(CO[C@H](C)Cn1cnc2c(N)ncnc21)NC[C@@H](C)C(=O)OC(C)C [Example 4, 1-methylethyl (5R,11R)-8-{[(1R)-2-(6-amino-9H-purin-9-yl)-1-methylethoxy]methyl}-2,5,11-trimethyl-4-oxo-3-oxa-7,9-diaza-8-phosphadodecan-12-oate 8-oxide]",–,–,> 8400,IC50 (HIV-1 (H9/IIIB strain); [6]): 6460 nM
"CC(C)OC(=O)C[C@H](C)NP(=O)(CO[C@H](C)Cn1cnc2c(N)ncnc21)N[C@@H](C)CC(=O)OC(C)C [Example 5, 1-methylethyl (6S,10S)-8-{[(1R)-2-(6-amino-9H-purin-9-yl)-1-methylethoxy]methyl}-2,6,10-trimethyl-4-oxo-3-oxa-7,9-diaza-8-phosphadodecan-12-oate 8-oxide]",–,–,> 8400,IC50 (HIV-1 (H9/IIIB strain); [6]): > 8400 nM
CC(C)OC(=O)[C@H](C)NP(=O)(CO[C@H](C)Cn1cnc2c(N)ncnc21)NC[C@H](C)C(=O)OC(C)C (some centres unmarked) [Example 6B],–,–,–,IC50 (HIV-1 (H9/IIIB strain); [2]): 258 nM; IC50 (HIV-1 (H9/IIIB strain); [3]): 494 nM
CC(C)OC(=O)C[C@@H](C)NP(=O)(CO[C@H](C)Cn1cnc2c(N)ncnc21)N[C@H](C)C(=O)OC1CCC1 (some centres unmarked) [Example 18B],–,–,–,IC50 (HIV-1 (H9/IIIB strain); [2]): 3810 nM; IC50 (HIV-1 (H9/IIIB strain); [3]): 7120 nM
CCCCCOC(=O)C(C)(C)N[P@@](=O)(CO[C@H](C)Cn1cnc2c(N)ncnc21)N[C@@H](CC(=O)OC(C)C)C(C)C [Example 24B],–,–,–,IC50 (HIV-1 (H9/IIIB strain); [2]): 28.9 nM; IC50 (HIV-1 (H9/IIIB strain); [3]): 170 nM
